Laboratory results as given in patent publication EP4745130A1, “CRYSTAL FORMS OF TUBULIN-SRC DUAL-TARGETING INHIBITOR, PREPARATION METHOD THEREFOR AND USE THEREOF” (Hubei Bio-Pharmaceutical Industrial Technological Institute …, priority 2023, dated 2025).
Counter-ions that a name gives are not always drawn. One block for each compound: values may come before it.

Assays:
[1] = Dynamic solubility experiment at 37°C (water, SGF, FaSSIF, FeSSIF); settings: for S: solubility: solid feed 10 mg/mL; for pH: pH value of the filtrate
Protocol: Rotating mixing was carried out at 37°C at a solid feed concentration of 10 mg/mL (calculated as the compound of Formula I). […] After sampling at each time point, the samples were centrifuged (10000 rpm) and filtered (0.45 µm PTFE filter head), and the HPLC concentration and pH value of the filtrate were measured.
100 mg of NaCl and 50 mg of Triton X-100 were weighed into a 50 mL volumetric flask, and purified water was added to complete dissolution. 816 µL of 1 M hydrochloric acid was added thereto, and the pH was adjusted to 1.8 with 1 M hydrochloric acid or 1 M NaOH solution. Purified water was added to make up to volume.
340 mg of anhydrous NaH2PO4 and 620 mg of NaCl were weighed into a 100 mL volumetric flask. Purified water was added to complete dissolution, followed by addition of 55.44 µL of 50% NaOH solution, and the pH was adjusted to 6.5 using 1M HCl or 1M NaOH solution. Purified water was added to make up to volume. 110 mg of SIF powder was then weighed into a 50 mL volumetric flask, added with the above solution to complete dissolution and make up to volume.
0.82 mL of glacial acetic acid and 1.18 g of NaCl were added to a 100 mL volumetric flask. Purified water was added to complete dissolution, followed by addition of 528 µL of 50% NaOH solution, and the pH was adjusted to 5.0 using 1M HCl or 1M NaOH solution. Purified water was added to make up to volume. 560 mg of SIF powder was then weighed into a 50 mL volumetric flask, added with the above solution to complete dissolution and make up to volume.

[2] = Hygroscopicity test by dynamic vapor sorption (DVS); type: physicochemical; settings: DVS, 25°C, 0%RH to 95%RH
Protocol: The dynamic vapor sorption (DVS) curve was collected on DVS IntrInsic from SMS (surface measurement systems). The relative humidity at 25°C was corrected using the deliquescence points of LiCl, Mg(NO3)2, and KCl. Table 18 DVS test parameters
The percentage change in sample mass was collected under constant temperature at 25°C as humidity varied from 0%RH to 95%RH.

[3] = Solid-state stability (XRPD and HPLC after open storage); type: physicochemical; settings: for Crystal form: XRPD
Protocol: The purity test, dynamic solubility test, and stability test in the assay were measured using an Agilent 1260 high-performance liquid chromatograph, and the salt formation molar ratio of ions was tested by ion chromatography, and the analytical conditions are shown in Table 19 and Table 20. Table 19 High-performance liquid chromatography test conditions

[4] = Heating / variable temperature XRPD (VT-XRPD), crystal form conversion; type: physicochemical
Protocol: The XRPD pattern was collected on an X-ray powder diffraction analyzer produced by PANalytacal, and the scanning parameters are shown in Table 16. Table 16 XRPD test parameters
The free form crystal form B sample was obtained by dissolving the compound of Formula I in MeOH, removing the solvent by rotary evaporation under reduced pressure, and then transferring the resulting gel-like sample for vacuum drying at 50°C. The XRPD and TGA/DSC characterization results are shown in FIGS. 4-6, and the XRPD diffraction peak data of the free form crystal form B are shown in Table 23. […] The TGA weight loss of the free form crystal form B is low, and the free form crystal form B is an anhydrous crystal form.
Combined with the TGA/DSC and ^1H NMR results of the crystal form A of the phosphate salt, the crystal form A of the phosphate salt was a hydrate, which dehydrated under heating conditions and converted to anhydrous crystal form B of the phosphate salt.

[5] = 25°C/60%RH/open, 1 week, listed as Crystal form A ofp-toluenesulfonate salt
[6] = 40°C/75%RH/open, 1 week, listed as Crystal form A ofp-toluenesulfonate salt

S: solubility ([1]; FaSSIF, 1 hour, 60 min): 9270 µg/mL | S: solubility ([1]; FaSSIF, 4 hours, 240 min): 8890 µg/mL | S: solubility ([1]; FaSSIF, 24 hours, 1440 min): 8470 µg/mL | S: solubility ([1]; FeSSIF, 1 hour, 60 min): 3800 µg/mL | S: solubility ([1]; FeSSIF, 4 hours, 240 min): 3660 µg/mL | S: solubility ([1]; FeSSIF, 24 hours, 1440 min): 3480 µg/mL | S: solubility ([1]; H2O, 1 hour, 60 min): 9650 µg/mL | S: solubility ([1]; H2O, 4 hours, 240 min): 9650 µg/mL | S: solubility ([1]; H2O, 24 hours, 1440 min): 9360 µg/mL | S: solubility ([1]; SGF, 1 hour, 60 min): 9990 µg/mL | S: solubility ([1]; SGF, 4 hours, 240 min): 9790 µg/mL | S: solubility ([1]; SGF, 24 hours, 1440 min): 9610 µg/mL | pH ([1]; FaSSIF, 1 hour): 4.2 | pH ([1]; FaSSIF, 4 hours): 4.2 | pH ([1]; FaSSIF, 24 hours): 4.2 | pH ([1]; FeSSIF, 1 hour): 4.7 | pH ([1]; H2O, 1 hour): 3.8 | pH ([1]; H2O, 4 hours): 3.8 | pH ([1]; H2O, 24 hours): 3.9 | pH ([1]; SGF, 1 hour): 3.1 | pH ([1]; SGF, 4 hours): 3.1 | pH ([1]; SGF, 24 hours): 3.1 | hygroscopicity ([2]; listed as crystal form B of the oxalate salt): slightly hygroscopic | Purity (area%) ([3]; 25°C/60%RH/open, 1 week): 97.49 area% | Relative to initial (%) ([3]; 25°C/60%RH/open, 1 week): 100.0% | Crystal form ([3]; 25°C/60%RH/open, 1 week): Crystal form B of oxalate salt | Purity (area%) ([3]; 40°C/75%RH/open, 1 week): 97.52 area% | Relative to initial (%) ([3]; 40°C/75%RH/open, 1 week): 100.1% | Crystal form ([3]; 40°C/75%RH/open, 1 week): Crystal form B of oxalate salt | Purity (area%) ([3]; Initial): 97.47 area%
Compound: Cc1cc(OCCN2C[C@H]3COC[C@H]3C2)ccc1-c1ccc(CC(=O)NCc2ccccc2)nc1 [Crystal form B of oxalate salt]

S: solubility ([1]; FaSSIF, 1 hour, 60 min): 6630 µg/mL | S: solubility ([1]; FaSSIF, 4 hours, 240 min): 6320 µg/mL | S: solubility ([1]; FaSSIF, 24 hours, 1440 min): 6140 µg/mL | S: solubility ([1]; FeSSIF, 1 hour, 60 min): 5130 µg/mL | S: solubility ([1]; FeSSIF, 4 hours, 240 min): 4120 µg/mL | S: solubility ([1]; FeSSIF, 24 hours, 1440 min): 3730 µg/mL | S: solubility ([1]; H2O, 1 hour, 60 min): 9830 µg/mL | S: solubility ([1]; H2O, 4 hours, 240 min): 9650 µg/mL | S: solubility ([1]; H2O, 24 hours, 1440 min): 9120 µg/mL | S: solubility ([1]; SGF, 1 hour, 60 min): 9140 µg/mL | S: solubility ([1]; SGF, 4 hours, 240 min): 9670 µg/mL | S: solubility ([1]; SGF, 24 hours, 1440 min): 9070 µg/mL | pH ([1]; FaSSIF, 1 hour): 5.9 | pH ([1]; FaSSIF, 4 hours): 5.9 | pH ([1]; FaSSIF, 24 hours): 5.9 | pH ([1]; FeSSIF, 1 hour): 4.9 | pH ([1]; FeSSIF, 4 hours): 4.9 | pH ([1]; FeSSIF, 24 hours): 4.9 | pH ([1]; H2O, 1 hour): 5.3 | pH ([1]; H2O, 4 hours): 5.4 | pH ([1]; H2O, 24 hours): 5.3 | pH ([1]; SGF, 1 hour): 3.4 | pH ([1]; SGF, 4 hours): 3.4 | pH ([1]; SGF, 24 hours): 3.4 | hygroscopicity ([2]; listed as crystal form A of the phosphate salt): rapidly dehydrates below 10% RH | crystal form after heating ([4]; heating to 150°C under nitrogen, cooling to 30°C, exposing to air): conversion to free form crystal form B | crystal form after purging ([4]; purging under N2 for 20 min): remained unchanged | Purity (area%) ([3]; 25°C/60%RH/open, 1 week): 97.84 area% | Relative to initial (%) ([3]; 25°C/60%RH/open, 1 week): 100.2% | Crystal form ([3]; 25°C/60%RH/open, 1 week): Crystal form A of phosphate salt | Purity (area%) ([3]; 40°C/75%RH/open, 1 week): 97.55 area% | Relative to initial (%) ([3]; 40°C/75%RH/open, 1 week): 99.9% | Crystal form ([3]; 40°C/75%RH/open, 1 week): Crystal form A of phosphate salt | Purity (area%) ([3]; Initial): 97.62 area%
Compound: Cc1cc(OCCN2C[C@H]3COC[C@H]3C2)ccc1-c1ccc(CC(=O)NCc2ccccc2)nc1 [Crystal form A of phosphate salt]

S: solubility ([1]; FaSSIF, 1 hour, listed as Crystal form A ofp-toluenesulfonate salt, 60 min): 2780 µg/mL | S: solubility ([1]; FaSSIF, 4 hours, listed as Crystal form A ofp-toluenesulfonate salt, 240 min): 2780 µg/mL | S: solubility ([1]; FaSSIF, 24 hours, listed as Crystal form A ofp-toluenesulfonate salt, 1440 min): 2680 µg/mL | S: solubility ([1]; FeSSIF, 1 hour, listed as Crystal form A ofp-toluenesulfonate salt, 60 min): 4120 µg/mL | S: solubility ([1]; FeSSIF, 4 hours, listed as Crystal form A ofp-toluenesulfonate salt, 240 min): 2510 µg/mL | S: solubility ([1]; FeSSIF, 24 hours, listed as Crystal form A ofp-toluenesulfonate salt, 1440 min): 2300 µg/mL | S: solubility ([1]; H2O, 1 hour, listed as Crystal form A ofp-toluenesulfonate salt, 60 min): 5970 µg/mL | S: solubility ([1]; H2O, 4 hours, listed as Crystal form A ofp-toluenesulfonate salt, 240 min): 6130 µg/mL | S: solubility ([1]; H2O, 24 hours, listed as Crystal form A ofp-toluenesulfonate salt, 1440 min): 5750 µg/mL | S: solubility ([1]; SGF, 1 hour, listed as Crystal form A ofp-toluenesulfonate salt, 60 min): 9410 µg/mL | S: solubility ([1]; SGF, 4 hours, listed as Crystal form A ofp-toluenesulfonate salt, 240 min): 9460 µg/mL | S: solubility ([1]; SGF, 24 hours, listed as Crystal form A ofp-toluenesulfonate salt, 1440 min): 8970 µg/mL | pH ([1]; FaSSIF, 1 hour, listed as Crystal form A ofp-toluenesulfonate salt): 6.0 | pH ([1]; FaSSIF, 4 hours, listed as Crystal form A ofp-toluenesulfonate salt): 6.1 | pH ([1]; FaSSIF, 24 hours, listed as Crystal form A ofp-toluenesulfonate salt): 6.1 | pH ([1]; FeSSIF, 1 hour, listed as Crystal form A ofp-toluenesulfonate salt): 4.9 | pH ([1]; FeSSIF, 4 hours, listed as Crystal form A ofp-toluenesulfonate salt): 4.9 | pH ([1]; FeSSIF, 24 hours, listed as Crystal form A ofp-toluenesulfonate salt): 4.9 | pH ([1]; H2O, 1 hour, listed as Crystal form A ofp-toluenesulfonate salt): 5.3 | pH ([1]; H2O, 4 hours, listed as Crystal form A ofp-toluenesulfonate salt): 5.4 | pH ([1]; H2O, 24 hours, listed as Crystal form A ofp-toluenesulfonate salt): 5.2 | pH ([1]; SGF, 1 hour, listed as Crystal form A ofp-toluenesulfonate salt): 3.3 | pH ([1]; SGF, 4 hours, listed as Crystal form A ofp-toluenesulfonate salt): 3.3 | pH ([1]; SGF, 24 hours, listed as Crystal form A ofp-toluenesulfonate salt): 3.3 | hygroscopicity ([2]; listed as crystal form A of the p-toluenesulfonate salt): slightly hygroscopic | Purity (area%) [3, 5]: 97.38 area% | Relative to initial (%) [3, 5]: 99.7% | Purity (area%) [3, 6]: 97.38 area% | Relative to initial (%) [3, 6]: 99.7% | Purity (area%) ([3]; Initial, listed as Crystal form A ofp-toluenesulfonate salt): 97.67 area%
Compound: Cc1cc(OCCN2C[C@H]3COC[C@H]3C2)ccc1-c1ccc(CC(=O)NCc2ccccc2)nc1
Crystal form [3, 5]: Crystal form A of p-toluenesulfonate salt | Crystal form [3, 6]: Crystal form A of p-toluenesulfonate salt

S: solubility ([1]; FaSSIF, 1 hour, 60 min): 3980 µg/mL | S: solubility ([1]; FaSSIF, 4 hours, 240 min): 3640 µg/mL | S: solubility ([1]; FaSSIF, 24 hours, 1440 min): 3550 µg/mL | S: solubility ([1]; FeSSIF, 1 hour, 60 min): 3150 µg/mL | S: solubility ([1]; FeSSIF, 4 hours, 240 min): 2890 µg/mL | S: solubility ([1]; FeSSIF, 24 hours, 1440 min): 2910 µg/mL | S: solubility ([1]; H2O, 1 hour, 60 min): 8290 µg/mL | S: solubility ([1]; H2O, 4 hours, 240 min): 8390 µg/mL | S: solubility ([1]; H2O, 24 hours, 1440 min): 8120 µg/mL | S: solubility ([1]; SGF, 1 hour, 60 min): 9940 µg/mL | S: solubility ([1]; SGF, 4 hours, 240 min): 9950 µg/mL | S: solubility ([1]; SGF, 24 hours, 1440 min): 9700 µg/mL | pH ([1]; FaSSIF, 1 hour): 6.1 | pH ([1]; FaSSIF, 4 hours): 6.1 | pH ([1]; FaSSIF, 24 hours): 6.1 | pH ([1]; FeSSIF, 1 hour): 4.9 | pH ([1]; FeSSIF, 4 hours): 4.9 | pH ([1]; FeSSIF, 24 hours): 4.9 | pH ([1]; H2O, 1 hour): 5.6 | pH ([1]; H2O, 4 hours): 5.6 | pH ([1]; H2O, 24 hours): 5.6 | pH ([1]; SGF, 1 hour): 3.4 | pH ([1]; SGF, 4 hours): 3.5 | pH ([1]; SGF, 24 hours): 3.5 | hygroscopicity ([2]; listed as crystal form A of the benzenesulfonate salt): slightly hygroscopic | Purity (area%) ([3]; 25°C/60%RH/open, 1 week): 97.61 area% | Relative to initial (%) ([3]; 25°C/60%RH/open, 1 week): 99.8% | Crystal form ([3]; 25°C/60%RH/open, 1 week): Crystal form A of benzenesulfonate salt | Purity (area%) ([3]; 40°C/75%RH/open, 1 week): 97.61 area% | Relative to initial (%) ([3]; 40°C/75%RH/open, 1 week): 99.8% | Crystal form ([3]; 40°C/75%RH/open, 1 week): Crystal form A of benzenesulfonate salt | Purity (area%) ([3]; Initial): 97.78 area%
Compound: Cc1cc(OCCN2C[C@H]3COC[C@H]3C2)ccc1-c1ccc(CC(=O)NCc2ccccc2)nc1 [Crystal form A of benzenesulfonate salt]
